Reference: patent US5347012A, “Naphthothiopyranone derivatives” (Taisho Pharmaceutical Co., Ltd., priority 1990, dated 1994)

System: Emesis induced by cisplatin
Assay: Anti-vomiting effect test: inhibition of cisplatin-induced emesis in suncus
Type: in vivo
Details: 45 min before cisplatin 30 mg/kg i.v., emesises over 2 hours; for % value to control (number of emesises): control = 100%
From the text: Emesis induced by cisplatin is known to be inhibited by antagonists at 5-HT3 receptors. The anti-vomiting effect of the compound of the present invention was compared with that of the compound described in Example of Japanese Patent Kokai 2-209876 according to the method of Matsumoto et al [Japanese Journal of Pharmacology, vol. 48, pp. 303-306 (1988)].
The compound obtained in Example 4 (hereinafter referred to as "Compound A") and the compound described in Example 1 of Japanese Patent Kokai 2-209876 (hereinafter referred to as "Compound B") were each suspended in 0.4% aqueous carboxymethylcellulose solution to give test samples.
Group each of six suncus of either sex weighing 40-60 g (male) and 30-50 g (female) were used. Each animal was placed with a chronic intravenous cannula 3 days before vomiting test. The samples prepared above were orally administered in the doses of 0.03-3 mg/kg to each group of the animals. After 45 minutes 30 mg/kg of cisplatin was administered intravenously, and number of emesises was determined for a period of 2 hours. Number of emesises for a period of 2 hours of a control group treated with 0.4% carboxymethylcellulose suspension alone was determined as well.
Number of emesises obtained above was expressed as compared with 100% of the control, and IC50 value was calculated by number of emesises.

## Cc1nccn1Cc1csc2ccc3ccccc3c2c1=O.Cl [Compound A, 2-[(2-Methyl-1-imidazolyl)methyl]-1H-naphtho-[2,1-b]thiopyran-1-one hydrochloride]
0.03 mg/kg oral
  % value to control (number of emesises): 77.8%
0.3 mg/kg oral
  % value to control (number of emesises): 17.0%
3 mg/kg oral
  % value to control (number of emesises): 4.4%
oral, doses 0.03-3 mg/kg, read-out: IC50 value (number of emesises)
  ED50: 0.0904 mg/kg
